# Experimental data published in patent US20240167922A1, “TRANSPARENTIZING REAGENT AND TRANSPARENTIZING METHOD” (KYOTO UNIVERSITY, priority 2021, published 2024).
# Key:
# [1] = Test for decolorizing agent (opacity); conditions: pasta immersed in the agent 5 days, then SoROCS 3 days; mean±SD of three experiments; water control 1.079±0.002
# Experimental: Pasta samples made from durum wheat were fixed in 4% (wt/wt) PFA/PBS at 30° C. for 1.5 hours, and washed twice in D-PBS. […] Values represent mean ±SD of three independent experiments.
# [2] = Measurement of opacity of noodle samples after optical clearing; conditions: Example 6: 3M to 4M aqueous solutions, 30° C. for 3 days after fixation
# Experimental: ClearSee was prepared by mixing xylitol powder [Nacalai tesque, 36718-65; final concentration 10% (wt/vol)], sodium deoxycholate [Nacalai tesque, 10712-96; final concentration 15% (wt/vol)], and urea [Nacalai tesque, 35905-35; final concentration 25% (wt/vol)] in Milli-Q water.
# The opacity of the samples was determined using a cooled CCD camera system (GE Healthcare, ImageQuant LAS 4000). […] Then, the sample was digitised by the CCD camera which was cooled to −25° C. with a lens (F0.85 43 mm) using white transillumination. […] The opacity of the sample was calculated by normalising the gray value of the sample with that of the background using free software (Fiji). The contrast C, which represents the difference in gray level, was calculated according to the following equation (1) from an image of the samples laid with a film on which a grid pattern was printed. The plot profile was measured using Fiji software.
# ClearSee is a reagent that is able to make plant samples transparent as described in Non-patent Literature 1, and aims to remove autofluorescence of chlorophyll from green leaves. To evaluate the transparency of the noodle samples, the opacity of the transmitted light image was quantified.
# The noodle samples were fixed and then immersed in each clearing reagent at 30° C. for 3 days, and the opacity was measured. As controls, the opacity of the noodle sample just after fixation and the noodle sample immersed in D-PBS instead of the clearing reagent was measured. […] Values in the figure represent mean±SD of three independent experiments.
# [3] = Test for defatting agent (opacity); conditions: fried noodles immersed in the agent 5 days, then SoROCS 3 days; mean±SD of three experiments; water control 1.120±0.006
# Experimental: Wheat noodle samples fried in vegetable oil were fixed in 4% (wt/wt) PFA/PBS at 30° C. for 1.5 hours and washed twice in D-PBS. […] Values represent mean ±SD of three independent experiments.
# [4] = water at 20° C.; cited from earlier work
SMILES,optical clearing of noodle samples [2],further results
"CCCCC(O)CO (stereo not shown) [1,2-hexanediol]",–,opacity [1]: 1.041±0.002
Oc1ccccc1O [catechol],cleared,–
O=C([O-])c1ccccc1C(=O)[O-].[Na+].[Na+] [disodium phthalate],cleared,–
C=C(C)[C@H]1CC=C(C)CC1 [limonene],–,opacity [3]: 1.089±0.004
O=C([O-])c1ccccc1O.[Li+] [lithium salicylate],cleared,–
Oc1cccc(O)c1O [pyrogallol],cleared,–
Oc1cccc(O)c1 [resorcinol],cleared,–
O=C([O-])c1cccc(O)c1.[Na+] [sodium 3-hydroxybenzoate],cleared,–
O=C([O-])c1ccc(O)cc1.[Na+] [sodium 4-hydroxybenzoate],cleared,–
O=C([O-])c1ccccc1O.[Na+] [sodium salicylate],–,solubility in water [4]: about 4.125 M
